Test results taken from patent US20250326771A1, “PIPERAZINE DERIVATIVES USEFUL IN HIV THERAPY” (VIIV HEALTHCARE COMPANY, priority 2022, published 2025).

Assays:
cIAP2-BIR3 = cIAP2-BIR3 (Homo sapiens (Human), UniProt Q13489); assay: BIR binding assay (FRET competition), cIAP2 BIR3; settings: for cIAP2 BIR3 vs BIR2 separation window: fold separation (FS) for cIAP2
XIAP-BIR3 = XIAP-BIR3 (Homo sapiens (Human), UniProt P98170); assay: BIR binding assay (FRET competition), XIAP BIR3
How it was run: (§1)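 615/665 nm FRET ratio. Compound, His-domain and 200 nM AF647-SMAC peptide incubated 60 min, then 2 nM Eu-W1024 for 30 min. Domains: cIAP1-BIR3 50 nM; XIAP-BIR3 100 nM; cIAP1-BIR2, cIAP2-BIR2 325 nM each. 15-pt 3-fold series; variable-slope IC50.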

cIAP1-BIR3 = cIAP1-BIR3 (Homo sapiens (Human), UniProt Q13490); assay: BIR binding assay (FRET competition), cIAP1 BIR3; settings: for cIAP1 BIR3 vs BIR2 separation window: fold separation (FS) for cIAP1
How it was run: as §1

cIAP2-BIR2 = cIAP2-BIR2 (Homo sapiens (Human), UniProt Q13489); assay: BIR binding assay (FRET competition), cIAP2 BIR2
How it was run: as §1

cIAP1-BIR2 = cIAP1-BIR2 (Homo sapiens (Human), UniProt Q13490); assay: BIR binding assay (FRET competition), cIAP1 BIR2
How it was run: as §1

[1] = system: Jurkat HIV-luciferase clones; assay: Jurkat latency reversal assay; format: cell-based; settings: Homo sapiens, 48 h; Jurkat latency reversal assay potency; read-out: Jurkat pEC50 (converted)
How it was run: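 EC50 and maximal activation versus vehicle were derived by four-parameter logistic regression of luciferase luminescence. The luminescence was induced in pooled Jurkat HIV-luciferase clones C16, 115 and N6 (5,000 cells/well) after 48 h at 37° C with duplicate 14-point, 3-fold dilutions starting at 10 μM (0.5% DMSO).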

cIAP1-BIR2, sequence (Q13490 173-257): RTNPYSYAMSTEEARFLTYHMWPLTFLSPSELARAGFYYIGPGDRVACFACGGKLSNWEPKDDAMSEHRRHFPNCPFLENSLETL
XIAP-BIR3, sequence (P98170 241-356): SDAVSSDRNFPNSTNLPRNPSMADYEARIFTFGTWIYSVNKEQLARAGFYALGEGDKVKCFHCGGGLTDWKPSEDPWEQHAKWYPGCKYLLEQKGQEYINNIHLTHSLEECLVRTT
cIAP2-BIR2, sequence (Q13489 158-242): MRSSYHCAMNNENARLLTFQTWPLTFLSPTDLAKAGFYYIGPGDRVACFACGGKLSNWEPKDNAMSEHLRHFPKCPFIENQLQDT
cIAP2-BIR3, sequence (Q13489 238-349): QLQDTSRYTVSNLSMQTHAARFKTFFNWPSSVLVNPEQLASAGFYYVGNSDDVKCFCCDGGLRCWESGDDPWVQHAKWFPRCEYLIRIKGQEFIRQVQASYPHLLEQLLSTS
cIAP1-BIR3, sequence (Q13490 253-363): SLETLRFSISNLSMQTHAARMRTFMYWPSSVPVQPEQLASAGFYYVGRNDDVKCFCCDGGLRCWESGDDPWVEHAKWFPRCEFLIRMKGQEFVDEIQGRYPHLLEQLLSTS

Row | Compound | IC50 (cIAP2-BIR3) [µM] | IC50 (XIAP-BIR3) [µM] | IC50 (cIAP1-BIR3) [µM] | IC50 (cIAP2-BIR2) [µM] | IC50 (cIAP1-BIR2) [µM] | EC50 [1] [µM] | cIAP2 BIR3 vs BIR2 separation window (cIAP2-BIR3) | cIAP1 BIR3 vs BIR2 separation window (cIAP1-BIR3)
1 | C[C@@H]1CN(CC(=O)N2CC(C)(C)c3[nH]c(=O)c(Cc4ccc(F)cc4)cc32)[C@@H](CN2CCO[C@H](COc3ccccc3-c3ccccc3OC[C@@H]3CN(C[C@H]4CN[C@H](C)CN4CC(=O)N4CC(C)(C)c5[nH]c(=O)c(Cc6ccc(F)cc6)cc54)CCO3)C2)CN1 [Example 67, 1,1′-(2,2′-((3R,3′R,6R,6′R)-(((2S,2'S)—(([1,1′-biphenyl]-2,2′-diylbis(oxy))bis(methylene))bis(morpholine-2,4-diyl))bis(methylene))bis(3-methylpiperazine-6,1-diyl))bis(acetyl))bis(6-(4-fluorobenzyl)-3,3-dimethyl-1,2,3,4-tetrahydro-5H-pyrrolo[3,2-b]pyridin-5-one)] | 0.00794 to 0.0158 | 0.00794 to 0.0158 | 0.00794 to 0.0158 | 3.16 to 10 | 1 to 3.16 | 0.00049 to 0.0126 | – | –
2 | C[C@@H]1CN(CC(=O)N2CC(C)(C)c3[nH]c(=O)c(Cc4ccc(F)cc4)cc32)[C@@H](CN2CCO[C@H](COCCCCCCOC[C@@H]3CN(C[C@H]4CN[C@H](C)CN4CC(=O)N4CC(C)(C)c5[nH]c(=O)c(Cc6ccc(F)cc6)cc54)CCO3)C2)CN1 [Example 64, 1,1′-(2,2′-((3R,3′R,6R,6′R)-(((2S,2'S)-((hexane-1,6-diylbis(oxy))bis(methylene))bis(morpholine-2,4-diyl))bis(methylene))bis(3-methylpiperazine-6,1-diyl))bis(acetyl))bis(6-(4-fluorobenzyl)-3,3-dimethyl-1,2,3,4-tetrahydro-5H-pyrrolo[3,2-b]pyridin-5-one)] | 0.00138 to 0.00794 | 0.00794 to 0.0158 | 0.00794 to 0.0158 | 10 to 51.3 | 10 to 51.3 | 0.00049 to 0.0126 | – | –
3 | C[C@@H]1CN(CC(=O)N2CC(C)(C)c3[nH]c(=O)c(Cc4ccc(F)cc4)cc32)[C@@H](CN2CCO[C@H](COc3ccc(C(=O)C(=O)c4ccc(OC[C@@H]5CN(C[C@H]6CN[C@H](C)CN6CC(=O)N6CC(C)(C)c7[nH]c(=O)c(Cc8ccc(F)cc8)cc76)CCO5)cc4)cc3)C2)CN1 [Example 59, 1,2-bis(4-(((S)-4-(((2R,5R)-1-(2-(6-(4-fluorobenzyl)-3,3-dimethyl-5-oxo-2,3,4,5-tetrahydro-1H-pyrrolo[3,2-b]pyridin-1-yl)-2-oxoethyl)-5-methylpiperazin-2-1)methyl)morpholin-2-yl)methoxy)phenyl)ethane-1,2-dione] | 0.00794 to 0.0158 | 0.0158 to 0.0316 | 0.0158 to 0.0316 | 3.16 to 10 | 3.16 to 10 | 0.00049 to 0.0126 | +++ (10,000>FS>1,000) | +++ (10,000>FS>1,000)
4 | C[C@@H]1CN(CC(=O)N2CC(C)(C)c3[nH]c(=O)c(Cc4c(F)cc(F)cc4F)cc32)[C@@H](CN2CCO[C@H](COc3cccc(OC[C@@H]4CN(C[C@H]5CN[C@H](C)CN5CC(=O)N5CC(C)(C)c6[nH]c(=O)c(Cc7c(F)cc(F)cc7F)cc65)CCO4)c3)C2)CN1 [Compound 188] | 0.0158 to 0.0316 | 0.0158 to 0.0316 | 0.0158 to 0.0316 | 1 to 3.16 | 1 to 3.16 | 0.00049 to 0.0126 | ++ (1,000>FS>100) | +++ (10,000>FS>1,000)
5 | C[C@@H]1CN(CC(=O)N2CC(C)(C)c3[nH]c(=O)c(Cc4ccc(F)cc4)cc32)[C@@H](CN2CCO[C@H](COc3ccc(Cl)c(OC[C@@H]4CN(C[C@H]5CN[C@H](C)CN5CC(=O)N5CC(C)(C)c6[nH]c(=O)c(Cc7ccc(F)cc7)cc65)CCO4)c3)C2)CN1 [Example 89, 1,1′-(2,2′-((3R,3′R,6R,6′R)-(((2S,2'S)-(((4-chloro-1,3-phenylene)bis(oxy))bis(methylene))bis(morpholine-2,4-diyl))bis(methylene))bis(3-methylpiperazine-6,1-diyl))bis(acetyl))bis(6-(4-fluorobenzyl)-3,3-dimethyl-1,2,3,4-tetrahydro-5H-pyrrolo[3,2-b]pyridin-5-one)] | 0.00794 to 0.0158 | 0.0158 to 0.0316 | 0.0158 to 0.0316 | 1 to 3.16 | 3.16 to 10 | 0.00049 to 0.0126 | +++ (10,000>FS>1,000) | +++ (10,000>FS>1,000)
6 | C[C@@H]1CN(CC(=O)N2CC(C)(C)c3[nH]c(=O)c(Cc4ccc(F)cc4)cc32)[C@@H](CN2CCN(C(=O)COc3ccc(OCC(=O)N4CCN(C[C@H]5CN[C@H](C)CN5CC(=O)N5CC(C)(C)c6[nH]c(=O)c(Cc7ccc(F)cc7)cc65)[C@H](C)C4)cc3)C[C@H]2C)CN1 [Example 13, 1,1′-(2,2′-((3R,3′R,6R,6′R)-(((2R,2′R)-(2,2′-(1,4-phenylenebis(oxy))bis(acetyl))bis(2-methylpiperazine-4,1-diyl))bis(methylene))bis(3-methylpiperazine-6,1-diyl))bis(acetyl))bis(6-(4-fluorobenzyl)-3,3-dimethyl-1,2,3,4-tetrahydro-5H-pyrrolo[3,2-b]pyridin-5-one)] | 0.0158 to 0.0316 | 0.0158 to 0.0316 | 0.0158 to 0.0316 | 1 to 3.16 | 0.0224 to 1 | 0.0631 to 0.316 | – | –
7 | C[C@@H]1CN(CC(=O)N2CC(C)(C)c3[nH]c(=O)c(Cc4ccc(F)cc4)cc32)[C@@H](CN2CCN(C(=O)/C=C/c3ccc(/C=C/C(=O)N4CCN(C[C@H]5CN[C@H](C)CN5CC(=O)N5CC(C)(C)c6[nH]c(=O)c(Cc7ccc(F)cc7)cc65)[C@H](C)C4)cc3)C[C@H]2C)CN1 [Example 14, 1,1′-(2,2′-((3R,3′R,6R,6′R)-(((2R,2′R)-((2E,2′E)-3,3′-(1,4-phenylene)bis(acryloyl))bis(2-methylpiperazine-4,1-diyl))bis(methylene))bis(3-methylpiperazine-6,1-diyl))bis(acetyl))bis(6-(4-fluorobenzyl)-3,3-dimethyl-1,2,3,4-tetrahydro-5H-pyrrolo[3,2-b]pyridin-5-one)] | 0.0158 to 0.0316 | 0.0158 to 0.0316 | 0.0158 to 0.0316 | 0.0224 to 1 | 0.0224 to 1 | 0.0631 to 0.316 | ++ (1,000>FS>100) | ++ (1,000>FS>100)
